In PubChem BioAssay (NCI):
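Test compounds were applied to cells in 96-well plates for 48 hours at 5 doses. TGI: total growth inhibition.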

What was measured:
Test in all cases: NCI tumour cell line growth inhibition, 48 h
[1] = test system: 786-0 renal
[2] = test system: A498 renal
[3] = test system: A549 NSCLC
[4] = test system: ACHN renal
[5] = test system: CAKI-1 renal
[6] = test system: CCRF-CEM leukemia
[7] = test system: COLO 205 colon
[8] = test system: DMS 114 small cell lung
[9] = test system: DMS 273 small cell lung
[10] = test system: EKVX NSCLC
[11] = test system: HCC-2998 colon
[12] = test system: HCT-116 colon
[13] = test system: HCT-15 colon
[14] = test system: HL-60(TB) leukemia
[15] = test system: HOP-18 NSCLC
[16] = test system: HOP-62 NSCLC
[17] = test system: HOP-92 NSCLC
[18] = test system: HT29 colon
[19] = test system: IGROV1 ovarian
[20] = test system: K-562 leukemia
[21] = test system: KM12 colon
[22] = test system: KM20L2 colon
[23] = test system: LOX IMVI melanoma
[24] = test system: M14 melanoma
[25] = test system: M19-MEL melanoma
[26] = test system: MALME-3M melanoma
[27] = test system: MOLT-4 leukemia
[28] = test system: NCI-H226 lung
[29] = test system: NCI-H23 lung
[30] = test system: NCI-H460 lung
[31] = test system: NCI-H522 lung
[32] = test system: OVCAR-3 ovarian
[33] = test system: OVCAR-5 ovarian
[34] = test system: OVCAR-8 ovarian
[35] = test system: RPMI-8226 leukemia
[36] = test system: RXF 393 renal
[37] = test system: RXF-631 renal
[38] = test system: SF-268 CNS
[39] = test system: SF-295 CNS
[40] = test system: SF-539 CNS
[41] = test system: SK-MEL-2 melanoma
[42] = test system: SK-MEL-28 melanoma
[43] = test system: SK-MEL-5 melanoma
[44] = test system: SK-OV-3 ovarian
[45] = test system: SN12C renal
[46] = test system: SNB-19 CNS
[47] = test system: SNB-75 CNS
[48] = test system: SNB-78 CNS
[49] = test system: SR leukemia
[50] = test system: SW-620 colon
[51] = test system: TK-10 renal
[52] = test system: U251 CNS
[53] = test system: UACC-257 melanoma
[54] = test system: UACC-62 melanoma
[55] = test system: UO-31 renal
[56] = test system: XF 498 CNS
[57] = test system: DLD-1 colon
[58] = test system: LXFL 529 NSCLC
[59] = test system: OVCAR-4 ovarian

Measured: TGI

COc1cc(C(=O)C/C(CCC(=O)Nc2ccccc2[N+](=O)[O-])=N\NC(N)=O)ccc1O
> 100 µM: [1] | [2] | [3] | [4] | [5] | [6] | [7] | [8] | [9] | [10] | [11] | [12] | [13] | [14] | [15] | [16] | [17] | [18] | [19] | [20] | [21] | [22] | [23] | [24] | [25] | [26] | [27] | [28] | [29] | [30] | [31] | [32] | [33] | [34] | [35] | [36] | [37] | [38] | [39] | [40] | [41] | [42] | [43] | [44] | [45] | [46] | [47] | [48] | [49] | [50] | [51] | [52] | [53] | [54] | [55] | [56]

O=c1nc(NC2CCCCO2)ccn1CCO (stereo unspecified)
> 100 µM: [1] | [2] | [3] | [4] | [5] | [6] | [7] | [57] | [8] | [9] | [10] | [12] | [13] | [14] | [15] | [16] | [17] | [18] | [19] | [20] | [21] | [22] | [23] | [58] | [24] | [25] | [26] | [28] | [30] | [31] | [32] | [59] | [33] | [34] | [35] | [36] | [37] | [38] | [39] | [40] | [41] | [42] | [43] | [44] | [45] | [47] | [48] | [49] | [50] | [51] | [52] | [53] | [54] | [55] | [56]
